In ChEMBL document CHEMBL3112582, “Identification of novel 7-amino-5-methyl-1,6-naphthyridin-2(1H)-one derivatives as potent PI3K/mTOR dual inhibitors” (Bioorg Med Chem Lett, 2014):

How the values were obtained:
[1] = biological target: Serine/threonine-protein kinase mTOR (Homo sapiens, UniProt P42345); assay: Inhibition of mTOR (unknown origin) after 40 mins by TR-FRET assay
[2] = biological target: Phosphatidylinositol 4,5-bisphosphate 3-kinase catalytic subunit alpha isoform (Homo sapiens, UniProt P42336); assay: Inhibition of PI3Kalpha (unknown origin) using PIP2/PS as substrate compound preincubated for 15 mins by luciferase-based luminescence assay
[3] = Half life in CD-1 mouse at 6.81 mg/kg, po; type: ADME, organism-based; set-up: dose 6.81 mg/kg, route oral; details: in vivo
[4] = Half life in CD-1 mouse at 1.3 mg/kg, iv; type: ADME, organism-based; set-up: dose 1.3 mg/kg, route intravenous; details: in vivo
[5] = Clearance in CD-1 mouse at 1.3 mg/kg, iv; type: ADME, organism-based; set-up: dose 1.3 mg/kg, route intravenous; details: in vivo
[6] = Oral bioavailability in CD-1 mouse at 6.81 mg/kg; type: ADME, organism-based; details: in vivo
[7] = AUC (infinity) in CD-1 mouse at 1.3 mg/kg, iv; type: ADME, organism-based; set-up: time infinity, dose 1.3 mg/kg, route intravenous; details: plasma
[8] = AUC (infinity) in CD-1 mouse at 6.81 mg/kg, po; type: ADME, organism-based; set-up: time infinity, dose 6.81 mg/kg, route oral; details: plasma
[9] = test system: SK-OV-3; assay: Antiproliferative activity against human SKOV3 cells after 72 hrs by CellTiter-Glo assay; type: functional, cell-based; details: SK-OV-3, 72 h

Chain of Phosphatidylinositol 4,5-bisphosphate 3-kinase catalytic subunit alpha isoform (P42336 whole entry, canonical isoform): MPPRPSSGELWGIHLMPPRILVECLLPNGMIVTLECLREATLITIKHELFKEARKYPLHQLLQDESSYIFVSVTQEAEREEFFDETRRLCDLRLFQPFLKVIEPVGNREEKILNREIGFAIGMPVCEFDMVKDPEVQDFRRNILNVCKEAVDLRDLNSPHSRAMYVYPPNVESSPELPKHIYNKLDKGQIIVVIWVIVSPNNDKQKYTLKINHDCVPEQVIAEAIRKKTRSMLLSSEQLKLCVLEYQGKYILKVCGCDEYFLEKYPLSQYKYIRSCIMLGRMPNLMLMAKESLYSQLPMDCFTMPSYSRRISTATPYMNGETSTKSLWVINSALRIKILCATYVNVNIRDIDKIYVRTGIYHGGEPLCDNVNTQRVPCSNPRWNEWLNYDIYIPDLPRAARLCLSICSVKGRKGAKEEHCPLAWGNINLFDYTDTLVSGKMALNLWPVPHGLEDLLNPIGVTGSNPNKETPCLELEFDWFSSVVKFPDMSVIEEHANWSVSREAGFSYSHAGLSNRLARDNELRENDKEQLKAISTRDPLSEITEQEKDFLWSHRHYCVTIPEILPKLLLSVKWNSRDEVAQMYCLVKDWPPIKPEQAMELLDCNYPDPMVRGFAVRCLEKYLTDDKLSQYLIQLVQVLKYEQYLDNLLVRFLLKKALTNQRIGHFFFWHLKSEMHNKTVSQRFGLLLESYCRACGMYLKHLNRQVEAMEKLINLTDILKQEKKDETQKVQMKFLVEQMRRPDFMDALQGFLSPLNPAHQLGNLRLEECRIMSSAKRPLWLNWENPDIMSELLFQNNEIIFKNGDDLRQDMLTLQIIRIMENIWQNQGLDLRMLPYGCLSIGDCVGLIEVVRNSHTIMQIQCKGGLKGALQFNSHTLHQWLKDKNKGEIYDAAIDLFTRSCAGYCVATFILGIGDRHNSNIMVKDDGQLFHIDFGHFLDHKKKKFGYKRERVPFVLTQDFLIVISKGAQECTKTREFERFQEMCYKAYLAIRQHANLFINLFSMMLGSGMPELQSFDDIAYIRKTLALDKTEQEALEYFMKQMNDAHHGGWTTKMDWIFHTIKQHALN

IC50 [1] | IC50 [2] | also measured | SMILES
30.1 nM | – | – | COc1ccc(-c2cc3c(C)nc(N)nc3n(C3CCCC3)c2=O)cn1
78.2 nM | 175 nM | – | COc1ncc(-c2cc3c(C)nc(N)cc3n(C3CCCC3)c2=O)cc1NS(=O)(=O)c1ccc(C(F)(F)F)cc1
35 nM | 72.6 nM | – | COc1ncc(-c2cc3c(C)nc(N)cc3n(C3CCCC3)c2=O)cc1NS(=O)(=O)c1ccc(F)cc1
13.9 nM | 60.5 nM | – | COc1ncc(-c2cc3c(C)nc(N)cc3n(C3CCCC3)c2=O)cc1NS(=O)(=O)c1cccc(F)c1
– | 37.3 nM | – | COc1ncc(-c2cc3c(C)nc(N)cc3n(C3CCCC3)c2=O)cc1NS(=O)(=O)c1ccccc1F
8.49 nM | 31.2 nM | – | COc1ncc(-c2cc3c(C)nc(N)cc3n(C3CCCC3)c2=O)cc1NS(=O)(=O)c1ccc(Cl)s1
28.7 nM | 9.9 nM | – | COc1ncc(-c2cc3c(C)nc(N)cc3n([C@H]3CC[C@H](O)CC3)c2=O)cc1NS(=O)(=O)c1ccc(F)cc1F
13.4 nM | 8.6 nM | – | COc1ncc(-c2cc3c(C)nc(N)cc3n(C3CCOCC3)c2=O)cc1NS(=O)(=O)c1ccc(F)cc1F
– | 39.6 nM | – | COc1ncc(-c2cc3c(C)nc(N)cc3n(C3CC3)c2=O)cc1NS(=O)(=O)c1ccc(F)cc1F
126 nM | 42.8 nM | – | COc1ncc(-c2cc3c(C)nc(N)cc3n(C(C)C)c2=O)cc1NS(=O)(=O)c1ccc(F)cc1F
> 10000 nM | > 10000 nM | – | COc1ccc(-c2cn([C@H]3CC[C@H](OCCO)CC3)c3nc(N)nc(C)c23)cn1
> 10000 nM | 5550 nM | – | COc1ccc(-c2cc3c(C)nc(N)nc3n2[C@H]2CC[C@H](OCCO)CC2)cn1
35.3 nM | – | – | COc1ncc(-c2cnc3nc(N)nc(C)c3c2)cc1NS(=O)(=O)c1ccc(F)cc1F
18.4 nM | 35.6 nM | – | COc1ncc(-c2cnc3nc(N)nc(-c4ccncc4)c3c2)cc1NS(=O)(=O)c1ccc(F)cc1F
2.32 nM | 3.43 nM | – | COc1ncc(-c2ccc3nc(N)nc(C)c3c2)cc1NS(=O)(=O)c1ccc(F)cc1F
11.2 nM | 35.4 nM | – | COc1ccc(-c2cc3c(C)nc(N)cc3n([C@H]3CC[C@H](OCCO)CC3)c2=O)cn1
39 nM | 13.6 nM | – | COc1ccc(-c2cc3c(C)nc(N)cc3n(C3CCCC3)c2=O)cn1
36.5 nM | 6.45 nM | – | COc1ncc(-c2cc3c(C)nc(N)cc3n(C3CCCC3)c2=O)cn1
160 nM | 5.95 nM | – | COc1ncc(-c2cc3c(C)nc(N)cc3n(C3CCCC3)c2=O)cc1F
12.3 nM | 2.45 nM | – | Cc1nc(N)cc2c1cc(-c1cnc3[nH]ccc3c1)c(=O)n2C1CCCC1
82.1 nM | 15.2 nM | – | Cc1nc(N)cc2c1cc(-c1cnc3c(ccn3C)c1)c(=O)n2C1CCCC1
13.9 nM | 2.9 nM | – | Cc1nc(N)cc2c1cc(-c1cnc3[nH]cnc3c1)c(=O)n2C1CCCC1
172 nM | 6 nM | – | Cc1nc(N)cc2c1cc(-c1cnc3[nH]ncc3c1)c(=O)n2C1CCCC1
33.9 nM | 12 nM | – | COc1ncc(-c2cc3c(C)nc(N)cc3n(C3CCCC3)c2=O)cc1NS(=O)(=O)c1ccc(F)cc1F
8.55 nM | 2.42 nM | half-life [3]: 460 min; half-life [4]: 79.8 min; clearance [5]: 2.87 mL/min/kg; bioavailability [6]: 8.5%; AUC(0-inf) [7]: 8090 ng·h/mL; AUC(0-inf) [8]: 3440 ng·h/mL; IC50 [9]: 2100 nM | COc1ncc(-c2cc3c(C)nc(N)cc3n([C@H]3CC[C@H](OCCO)CC3)c2=O)cc1NS(=O)(=O)c1ccc(F)cc1F
62.6 nM | 23.1 nM | – | COc1ncc(-c2cc3c(C)nc(N)cc3n(C3CCCC3)c2=O)cc1NS(C)(=O)=O
141 nM | 69.1 nM | – | COc1ncc(-c2cc3c(C)nc(N)cc3n(C3CCCC3)c2=O)cc1NS(=O)(=O)C1CC1
19.2 nM | 117 nM | – | COc1ncc(-c2cc3c(C)nc(N)cc3n(C3CCCC3)c2=O)cc1NS(=O)(=O)c1ccccc1
65.6 nM | 174 nM | – | COc1ccc(S(=O)(=O)Nc2cc(-c3cc4c(C)nc(N)cc4n(C4CCCC4)c3=O)cnc2OC)cc1
24.7 nM | 14.3 nM | – | COc1ncc(-c2cc3c(C)nc(N)cc3n(C3CCCC3)c2=O)cc1NS(=O)(=O)c1ccc(C#N)cc1
